Experimental data taken from a compilation of properties of binary mixtures (doi:10.1016/j.jct.2023.107038).

Test: xn = mol fraction of the nth substance listed
Conditions: 96.7 kPa

OCC(F)(F)F + CC(=O)[O-].CC[n+]1ccn(C)c1
viscosity [mPa·s]
Conditions	293.15 K	298.15 K	303.15 K	308.15 K	313.15 K	318.15 K	323.15 K	328.15 K	333.15 K
x1 = 0.048	157	–	–	67	53	42.2	34.3	28.4	23.7
x1 = 0.103	138	104	79	61	48.5	39.2	31.6	26.5	–
x1 = 0.204	–	75	59	–	37.7	30.6	25.6	21.4	18.2
x1 = 0.298	69	54	42.9	34.7	28.5	23.7	20	–	14.5
x1 = 0.402	46.1	–	–	24.2	21.1	17.6	–	12.9	11.3
x1 = 0.603	–	14.6	12.4	11	9.5	–	7.4	6.5	–
x1 = 0.801	6.2	5.5	4.85	4.32	–	3.54	–	2.94	2.69
x1 = 1	2.01	1.8	1.59	1.41	–	1.1	1.01	0.93	–

OCC(F)(F)F + CC[n+]1ccn(C)c1.O=S(=O)([N-]S(=O)(=O)C(F)(F)F)C(F)(F)F
viscosity [mPa·s]
Conditions	293.15 K	298.15 K	303.15 K	308.15 K	313.15 K	318.15 K	323.15 K	328.15 K	333.15 K
x1 = 0.051	–	30.2	25.7	22	–	16.5	14.5	12.7	11.4
x1 = 0.099	32.5	27.4	23.4	20	17.6	15.2	–	11.8	10.7
x1 = 0.204	25.7	23.1	19.6	–	14.3	13.1	11.5	10.1	9.3
x1 = 0.303	–	17.7	15.3	13.5	11.8	10.3	9.4	8.4	7.6
x1 = 0.396	–	13.5	11.7	10.3	–	8.2	7.3	6.8	–
x1 = 0.599	8.3	7.3	–	5.8	5.2	–	4.3	3.92	3.59
x1 = 0.799	–	3.53	3.16	2.96	2.68	2.47	2.27	–	1.95
x1 = 1	2.01	1.8	1.59	–	1.26	1.1	1.01	0.93	–

CC(=O)[O-].CC[n+]1ccn(C)c1 + OCC(F)(F)F
x2 = 0
Conditions	viscosity [mPa·s]
293.15 K	181
298.15 K	135
303.15 K	100
308.15 K	76
323.15 K	38.5
328.15 K	31.4
333.15 K	26

CC[n+]1ccn(C)c1.O=S(=O)([N-]S(=O)(=O)C(F)(F)F)C(F)(F)F + OCC(F)(F)F
x2 = 0
Conditions	viscosity [mPa·s]
293.15 K	39.2
298.15 K	32.9
303.15 K	27.8
318.15 K	17.6
323.15 K	15.4
328.15 K	13.6
333.15 K	12.2
